Columns and labels:
VDR = biological target: T1, VDR (Homo sapiens, UniProt P11473); experiment: Translocation of VDR to the nucleus, imaging flow cytometry in HaCaT; type: cell-based; settings: 10^–7 M, 12 h
T1 construct: endogenous in cells; host or cells: HaCaT keratinocytes
T1 sequence (P11473 1-427): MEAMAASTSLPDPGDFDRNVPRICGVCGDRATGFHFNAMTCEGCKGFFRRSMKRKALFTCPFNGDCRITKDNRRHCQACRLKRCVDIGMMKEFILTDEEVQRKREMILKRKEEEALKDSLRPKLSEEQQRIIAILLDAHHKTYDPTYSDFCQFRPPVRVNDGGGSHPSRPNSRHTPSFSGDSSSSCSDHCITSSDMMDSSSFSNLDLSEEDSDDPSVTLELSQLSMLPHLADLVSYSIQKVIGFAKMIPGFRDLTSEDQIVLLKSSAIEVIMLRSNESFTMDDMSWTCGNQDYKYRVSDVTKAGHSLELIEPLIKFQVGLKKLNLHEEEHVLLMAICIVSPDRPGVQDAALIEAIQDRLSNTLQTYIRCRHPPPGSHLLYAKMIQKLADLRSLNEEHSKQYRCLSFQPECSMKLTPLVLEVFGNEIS

[1] = test system: LXRα/β binding to the LXRE within the ABCA1 promoter region; experiment: ChIP assay in HaCaT keratinocytes; type: cell-based, human; settings: 10^–7 M, 24 h
Excerpt: We followed protocols described in Ref.[40]. […] The cells were harvested and in vivo crosslinking, lysis and sonication of the chromatin, as well as following steps of ChIP assay, were done using Magna ChiP G Kit 0002 (Millipore). […] The purified DNA fragments were PCR amplified with the following sequence of PCR primers for human ABCA1 LXR-responsive element (LXRE): Forward: [NT], Reverse: [NT] and for human GAPDH as a reference gene: Forward: [NT], Reverse: [NT] (Eurofins Genomics). The PCR reaction was performed using Dream Taq Green PCR Master Mix (2×) (Thermo Scientific, cat. no. K1081) according to the following procedure: initial denaturation: 95 °C for 3 min; denaturation: 95 °C for 30 s (× 35 cycles); annealing: 58 °C for 30 s (× 35 cycles in the same cycles with denaturation); extension: 72 °C for 1 min; final extension: 72 °C for 15 min. The detection of amplification product was done by standard agarose gel electrophoresis with EtBr using Invitrogen iBright CL1000 Imaging System, with # SM Gene Ruler 1 kb Plus DNA Ladder (Thermo Scientific) as a marker.

brains of SKH-1 mice = experiment: LXR-dependent gene expression in brain of mice after subcutaneous injection; type: in vivo, mouse; settings: 6 h, SKH-1-M mice
Protocol: Adult hairless mice SKH-1 (Male, 16 weeks old) and Ptch^+/−/SKH-1 (Male, 18 weeks old) were injected subcutaneously with 20 µg and 10 µg/kg of 20(OH)D3, respectively, dissolved in ethanol, further diluted in propylene glycol (PG) and saline (0.9%) sequentially (1:19:80, v/v/v). Controls were injected with the vehicle without the drug. )After 6 h the animals were killed by halothane followed by cervical dislocation and brains were collected for RNA and protein extraction protocols. The procedures followed the guidelines and approvals of the Institute Animal Care and Use Committee of the University of Alabama at Birmingham (IACUC).
RNA isolated from either fibroblasts, HaCaT cells or brain was submitted for cDNA synthesis (High Capacity cDNA Reverse Transcription Kit with RNase Inhibitor, Applied Biosystems) following the manufacturers’ protocols. RT-PCR was carried out using Cyber green, in triplicates; as previously described. Approximately, 750 ng of cDNA was used for PCR reactions. GAPDH and CIC-B were used as internal controls. Primer sequences are listed in Supplementary Table 27. Data were analyzed using GraphPad Prism statistical software one way ANOVA or t-test, where appropriate; *p < 0.05; **p < 0.01; ***p < 0.001.

Structure (SMILES) | translocation of VDR from the cytoplasm to the nucleus (VDR) | LXRα/β binding to the LXRE within the ABCA1 promoter region (ChIP) [1] | LXR-dependent gene expression in brain (brains of SKH-1 mice; 10 µg/kg) | LXR-dependent gene expression in brain (brains of SKH-1 mice; 20 µg/kg)
C=C1C(=CC=C2CCCC3(C)C2CCC3C(C)(O)CC(O)CC(C)C)CC(O)CC1O (centres unmarked) [1,20,23(OH)3D3] | increased translocation | – | – | –
C=C1/C(=C\C=C2/CCC[C@]3(C)[C@@H]([C@H](C)CCCC(C)(C)O)CC[C@@H]23)C[C@@H](O)C[C@@H]1O [1,25(OH)2D3, reference compound] | – | significant stimulation | – | –
C=C1CC[C@H](O)C/C1=C/C=C1\CCC[C@@]2(C)[C@H]1CC[C@@H]2[C@@](C)(O)CCCC(C)C [20(OH)D3] | increased translocation | – | stimulated expression of Abca1, Abcg1, Abcg5, ApoE, Fas and Cyp7a1 | stimulated expression of Lpl, Abca1, ApoE and Cyp7a1

Reference: PMC8044163, “Vitamin D and lumisterol derivatives can act on liver X receptors (LXRs)” (Scientific Reports, 2021)
